Legend:
CHK1 = target: T1, CHK1 (Homo sapiens, UniProt O14757); assay: CHK1 high-throughput screening; assay type: biochemical; conditions: read-out: % inhibition @ 20 μM, Table 4, repeated entries per example
T1 sequence (O14757 1-476): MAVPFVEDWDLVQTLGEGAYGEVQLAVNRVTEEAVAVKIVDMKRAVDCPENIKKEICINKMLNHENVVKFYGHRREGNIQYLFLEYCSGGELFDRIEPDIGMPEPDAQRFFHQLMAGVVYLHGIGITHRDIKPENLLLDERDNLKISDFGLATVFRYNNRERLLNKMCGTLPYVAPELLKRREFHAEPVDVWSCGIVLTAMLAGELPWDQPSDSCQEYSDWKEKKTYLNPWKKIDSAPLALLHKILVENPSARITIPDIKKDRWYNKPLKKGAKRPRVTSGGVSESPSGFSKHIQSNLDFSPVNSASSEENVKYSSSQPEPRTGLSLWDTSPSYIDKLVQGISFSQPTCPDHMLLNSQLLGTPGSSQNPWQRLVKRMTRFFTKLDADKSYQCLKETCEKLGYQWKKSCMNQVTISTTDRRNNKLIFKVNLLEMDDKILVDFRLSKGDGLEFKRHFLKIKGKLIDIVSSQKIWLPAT

[1] = tested on: lung cancer cells (line MV522); assay: Cancer cell proliferation (MV522) assay; assay type: cell-based
Protocol: Cancer Cell Proliferation (MV522) Assay
The protocol for assessing cellular proliferation in cancer cells is similar to that used for assessments in HUVEC cells. Two thousand lung cancer cells (line MV522, acquired from American Tissue Cultural Collection) were seeded in growth media (RPMI1640 medium supplemented with 2 mM glutamine and 10% FBS). Cells are allowed to attach for 1 day prior to addition of test agents and/or vehicles. Cells are treated simultaneously with the same test agents used in the HUVEC assay. Cellular proliferation is quantified by MTT dye reduction assay 72 hours after exposure to test agents. The total length of the assay is 4 days vs. 5 for HUVEC cells because MV522 cells are not exposed to starvation medium.

[2] = tested on: human umbilical vein endothelial cells (HUVEC); assay: HUVEC proliferation assay; assay type: cell-based; conditions: Homo sapiens, HUVEC
Summary of the method: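 Exponentially growing HUVEC were serum-starved 24 h (F12K + 1% FBS), pre-treated 1 h with compound (0.1% DMSO final), then stimulated with 6 ng/ml VEGF. Proliferation was read 72 h later by MTT reduction (A595). IC50 came from seven 0.5-log concentrations in triplicate; screens gave % inhibition relative to VEGF-only and starved wells.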

[3] = target: T2, unphosphorylated VEGF-R2Δ50 (FLVK) (Homo sapiens, UniProt P35968, DEL940-989/E990V); assay: VEGF-R2 coupled spectrophotometric assay, unphosphorylated enzyme (FLVK); assay type: biochemical
T2 construct: VEGF-R2Δ50 contains residues 806-939 and 990-1171; made in house; host or cells: baculovirus/insect cells
T2 sequence (P35968 with tags, fused parts or gaps DEL940-989/E990V limits assumed): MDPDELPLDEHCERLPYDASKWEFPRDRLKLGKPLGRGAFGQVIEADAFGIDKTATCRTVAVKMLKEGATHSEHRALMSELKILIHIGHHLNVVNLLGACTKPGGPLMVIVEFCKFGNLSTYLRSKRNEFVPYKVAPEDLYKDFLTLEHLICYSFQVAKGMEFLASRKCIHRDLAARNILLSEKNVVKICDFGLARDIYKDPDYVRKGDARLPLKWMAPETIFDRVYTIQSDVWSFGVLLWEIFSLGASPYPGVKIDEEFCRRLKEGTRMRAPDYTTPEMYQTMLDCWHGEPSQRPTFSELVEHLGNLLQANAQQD
Summary of the method: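 Unphosphorylated VEGF-R2Δ50 (5 to 40 nM) with 20 mM poly(E4Y1), 3 mM ATP, 60 mM MgCl2, 2 mM MnCl2 in 200 mM Hepes pH 7.5. ADP production coupled via PK/LDH to NADH oxidation, read at 340 nm. Ki from activity at varying compound concentrations.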

[4] = target: T3, phosphorylated VEGF-R2Δ50 (FLVK-P) (Homo sapiens, UniProt P35968, DEL940-989/E990V); assay: VEGF-R2 coupled spectrophotometric (FLVK-P) assay; assay type: biochemical; conditions: Table 1; spectrophotometric assay
T3 construct: VEGF-R2Δ50 contains residues 806-939 and 990-1171; made in house; host or cells: baculovirus/insect cells
T3 sequence (P35968 with tags, fused parts or gaps DEL940-989/E990V limits assumed): as above
Summary of the method: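 Baculovirus-expressed human VEGF-R2Δ50 (residues 806-939/990-1171, E990V) was autophosphorylated with 3 mM ATP, 40 mM MgCl2 for 2 h at 4° C. ADP formation was coupled via PK/LDH to NADH oxidation, read at 340 nm, with 5.1 mM poly(E4Y1), 1 mM ATP, 25 mM MgCl2, Hepes pH 7.5. Ki came from activity across compound concentrations.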

Row | SMILES | inhibition at 20 µM (CHK1) | IC50 ([1]; MV522, Table 3) | Ki ([3]; Table 3, some entries 'Slow binder') | IC50 ([1]; MV522, Table 1) | Ki [4] | Ki ([3]; Table 1) | IC50 ([2]; Table 3) | IC50 ([2]; Table 1)
1 | COc1cc(Nc2nc(N)c(-c3nc(-c4cccc(C(=O)NCCc5ccccc5)c4)cs3)s2)cc(OC)c1OC [A(31), 3-[4′-Amino-2′-(3,4,5-trimethoxy-phenylamino)-[2,5′]bithiazolyl-4-yl]-N-phenethyl-benzamide] | 2.5% |  |  |  |  |  |  | 
2 | COc1cc(Nc2nc(N)c(-c3nc(-c4cccc(C(=O)NCc5ccccc5)c4)cs3)s2)cc(OC)c1OC [A(32), 3-[4′-Amino-2′-(3,4,5-trimethoxy-phenylamino)-[2,5′]bithiazolyl-4-yl]-N-benzyl-benzamide] | -3.8% |  |  |  |  |  |  | 
3 | CNc1nc(N)c(-c2nc(-c3cc(NC(=O)c4cccc(OC)c4)ccc3C)no2)s1 [B(17), N-(3-{5-[4-Amino-2-(3,4,5-methylamino)-thiazol-5-yl]-[1,2,4]oxadiazol-3-yl]-4-methyl-phenyl}-3-methoxy-benzamide] |  | 1300 nM | 3.4 nM |  |  |  | 63 nM | 
4 | COc1cc(Nc2nc(N)c(-c3nc(-c4cccc(NC(=O)OCc5ccccc5)c4)no3)s2)cc(OC)c1OC [D(44), 3-[3-Benzyloxycarboxy-aminophenyl]-5-[2-[(3,4,5-trimethoxyphenyl)amino]-4-amino-5-thiazolyl]-1,2,4-oxadiazole] |  |  |  | > 10000 nM | 5.4 nM | 2.1 nM |  | 373 nM
5 | COc1cc(Nc2nc(N)c(-c3nc(-c4cccc(NC(=O)c5ccccc5)c4)no3)s2)cc(OC)c1OC [D(46), 3-[3-Benzamidophenyl]-5-[2-[(3,4,5-trimethoxyphenyl)amino]-4-amino-5-thiazolyl]-1,2,4-oxadiazole] |  |  |  | > 10000 nM | 17.1 nM |  |  | 123 nM
6 | COc1cc(Nc2nc(N)c(-c3nc(-c4cccc(NC(=O)c5cccc(C)c5)c4)no3)s2)cc(OC)c1OC [D(47), 3-[3-(3-Methylbenzamido)phenyl]-5-[2-[(3,4,5-trimethoxyphenyl)amino]-4-amino-5-thiazolyl]-1,2,4-oxadiazole] |  |  |  | > 10000 nM | 1.1 nM | 0.34 nM |  | 13 nM
7 | COc1cccc(C(=O)Nc2cccc(-c3noc(-c4sc(Nc5cc(OC)c(OC)c(OC)c5)nc4N)n3)c2)c1 [D(48), 3-[3-(3-Methoxybenzamido)phenyl]-5-[2-[(3,4,5-trimethoxyphenyl)amino]-4-amino-5-thiazolyl]-1,2,4-oxadiazole] |  |  |  | > 10000 nM | 4.1 nM |  |  | 40 nM
8 | COc1cc(Nc2nc(N)c(-c3nc(-c4cccc(NC(=O)c5cccc(C(F)(F)F)c5)c4)no3)s2)cc(OC)c1OC [D(49), 3-[3-(3-Trifluoromethylbenzamido)phenyl]-5-[2-[(3,4,5-trimethoxyphenyl)amino]-4-amino-5-thiazolyl]-1,2,4-oxadiazole] |  |  |  | > 10000 nM | 1.6 nM |  |  | 15 nM
9 | COc1cc(Nc2nc(N)c(-c3nc(-c4cccc(NC(=O)c5cccc(Cl)c5)c4)no3)s2)cc(OC)c1OC [D(50), 3-[3-(3-Chlorobenzamido)phenyl]-5-[2-[(3,4,5-trimethoxyphenyl)amino]-4-amino-5-thiazolyl]-1,2,4-oxadiazole] |  |  |  | > 10000 nM | 1.4 nM |  |  | 17 nM

More lines, main results first:

Row | inhibition at 20 µM (CHK1) | IC50 ([1]; MV522, Table 3) | Ki ([3]; Table 3, some entries 'Slow binder') | IC50 ([1]; MV522, Table 1) | Ki [4] | Ki ([3]; Table 1) | SMILES | IC50 ([2]; Table 3) | IC50 ([2]; Table 1)
10 |  |  |  | > 10000 nM | 2 nM | 2.6 nM | COc1cc(Nc2nc(N)c(-c3nc(-c4cccc(NC(=O)OCc5ccccc5)c4)cs3)s2)cc(OC)c1OC [D(12), {3-[4′-Amino-2′-(3,4,5-trimethoxy-phenylamino)-[2,5′]bithiazolyl-4-yl]-phenyl}-carbamic acid benzyl ester] |  | 160 nM
11 |  |  |  | > 10000 nM | 1.8 nM | 2 nM | COc1cc(Nc2nc(N)c(-c3nc(-c4cccc(NC(=O)c5ccccc5)c4)cs3)s2)cc(OC)c1OC [D(24), N-{3-[4′-Amino-2′-(3,4,5-trimethoxy-phenylamino)-[2,5′]bithiazolyl-4-yl]-phenyl}-benzamide] |  | 110 nM
12 |  |  |  | > 10000 nM | 3.8 nM | 3.6 nM | COc1cc(Nc2nc(N)c(-c3nc(-c4cccc(NC(=O)c5sc(C)nc5C)c4)cs3)s2)cc(OC)c1OC [D(33), 2,4-Dimethyl-thiazole-5-carboxylic acid {3-[4′-amino-2′-(3,4,5-trimethoxy-phenylamino)-[2,5′]bithiazolyl-4-yl]-phenyl}-amide] |  | 120 nM
13 |  |  |  | > 10000 nM | 1.8 nM |  | COc1cc(Nc2nc(N)c(-c3nc(-c4cccc(NC(=O)c5ccc(Cl)s5)c4)cs3)s2)cc(OC)c1OC [D(35), 5-Chloro-thiophene-2-carboxylic acid {3-[4′-amino-2′-(3,4,5-trimethoxy-phenylamino)-[2,5′]bithiazolyl-4-yl]-phenyl}-amide] |  | 42 nM
14 |  |  |  | > 10000 nM | 2 nM |  | COc1cc(Nc2nc(N)c(-c3nc(-c4cccc(NC(=O)c5ccc(Br)s5)c4)cs3)s2)cc(OC)c1OC [D(36), 5-Bromo-thiophene-2-carboxylic acid {3-[4′-amino-2′-(3,4,5-trimethoxy-phenylamino)-[2,5′]bithiazolyl-4-yl]-phenyl}-amide] |  | 43 nM
15 |  |  |  | > 10000 nM | 3.4 nM |  | COc1cc(Nc2nc(N)c(-c3nc(-c4cccc(NC(=O)c5ccc(Br)o5)c4)cs3)s2)cc(OC)c1OC [D(37), 5-Bromo-furan-2-carboxylic acid {3-[4′-amino-2′-(3,4,5-trimethoxy-phenylamino)-[2,5′]bithiazolyl-4-yl]-phenyl}-amide] |  | 150 nM
16 |  |  |  | > 10000 nM | 0.93 nM |  | COc1cc(Nc2nc(N)c(-c3nc(-c4cccc(NC(=O)c5cccc(C)c5)c4)cs3)s2)cc(OC)c1OC [D(38), N-{3-[4′-Amino-2′-(3,4,5-trimethoxy-phenylamino)-[2,5′]bithiazolyl-4-yl]-phenyl}-3-methyl-benzamide] |  | 40 nM
17 |  |  |  | > 10000 nM | 1.4 nM |  | CCc1cccc(C(=O)Nc2cccc(-c3csc(-c4sc(Nc5cc(OC)c(OC)c(OC)c5)nc4N)n3)c2)c1 [D(39), N-{3-[4′-Amino-2′-(3,4,5-trimethoxy-phenylamino)-[2,5′]bithiazolyl-4-yl]-phenyl}-3-ethyl-benzamide] |  | 62 nM
18 |  |  |  | > 10000 nM | 1.1 nM | 1.4 nM | COc1cc(Nc2nc(N)c(-c3nc(-c4cccc(NC(=O)c5cccc(Cl)c5)c4)cs3)s2)cc(OC)c1OC [D(40), N-{3-[4′-Amino-2′-(3,4,5-trimethoxy-phenylamino)-[2,5′]bithiazolyl-4-yl]-phenyl}-3-chloro-benzamide] |  | 39 nM
19 |  |  |  | > 10000 nM | 1.9 nM |  | COc1cccc(C(=O)Nc2cccc(-c3csc(-c4sc(Nc5cc(OC)c(OC)c(OC)c5)nc4N)n3)c2)c1 [D(41), N-{3-[4′-Amino-2′-(3,4,5-trimethoxy-phenylamino)-[2,5′]bithiazolyl-4-yl]-phenyl}-3-methoxy-benzamide] |  | 37 nM
20 |  |  |  | > 10000 nM | 0.34 nM | 0.77 nM | COc1cc(Nc2nc(N)c(-c3nc(-c4cccc(NC(=O)c5ncc(C)s5)c4)cs3)s2)cc(OC)c1OC [D(42), 5-Methyl-thiazole-2-carboxylic acid {3-[4′-amino-2′-(3,4,5-trimethoxy-phenylamino)-[2,5′]bithiazolyl-4-yl]-phenyl}-amide] |  | 53 nM
21 |  |  |  | > 10000 nM | 2.9 nM |  | COc1cc(Nc2nc(N)c(-c3nc(-c4cccc(NC(=O)OC(C)(C)C)c4)cs3)s2)cc(OC)c1OC [D(43), {3-[4′-Amino-2′-(3,4,5-trimethoxy-phenylamino)-[2,5′]bithiazolyl-4-yl]-phenyl}-carbamic acid tert-butyl ester] |  | 241 nM

Source: patent publication US6620828B2, “Thiazole compounds and pharmaceutical compositions for inhibiting protein kinases and methods for their use” (Agouron Pharmaceuticals, Inc., priority 1999, dated 2003)
